Type in all cases: in vivo, human
Experiment [1] relates to persistent Herpes 1 and Herpes 4 infections. Description: Case Study 4: person with memory problems, dementia consistent with Alzheimer's disease. As to conditions: after six months. The method, then: A person presented for evaluation of memory problems. Cognitive testing was consistent with dementia. A SPECT functional brain scan was performed. The results were consistent with Alzheimer's disease. […] The patient was started on antiviral therapy with valacyclovir 1000 mg two times per day orally. The valacyclovir was stopped and famciclovir was started at 500 mg two times per day orally. After one month, the famciclovir was increased to 1000 mg two times per day orally. […] was added to their regimen at a dose of 500 mg two times per day orally. […] Family members were thrilled with the improvement.

The subject of experiment [2] is persistent Herpes 4 and Herpes 6 infections. Kind of experiment: Case Study 5: person with severe fatigue. On the procedure:
An active person had struggled with depression and obsessive-compulsive disorder in the past, but these problems were well-controlled with medications. They actively engaged in daily exercising, including skiing, bicycle riding, and vigorous walking. Suddenly, they developed severe fatigue. […] The patient was started on valacyclovir at a dose of 1000 mg two times per day orally. […] Then they were switched to famciclovir, titrating from 500 mg two times per day to 1000 mg two times per day orally. […] Within two months, the patient noted less fatigue.

Experiment [3] relates to herpes 4 and 6 as persistent infections. Description: Case Study 1: adult with CFS, anxiety and irritable bowel syndrome. As to conditions: valacyclovir 1000 mg two times per day orally, alone. On the procedure: Antiviral therapy with valacyclovir at 1000 mg two times per day orally was begun. […] NTZ was added at 500 mg two times per day orally to the regimen.
Experiment [4] concerns persistent Herpes 4 and 6 infections. Description: Case Study 2: adult with multiple symptoms of VIFD (CFS, fibromyalgia, pain). An excerpt:
An adult presented with multiple symptoms of VIFD across multiple systems. They experienced fatigue, brain fog, and unrefreshing sleep consistent with CFS. They experienced muscle and joint pain with trigger point pain and exaggerated reactions to pain consistent with fibromyalgia. They experienced pelvic and vaginal pain, headaches, depression, anxiety, sore throat, painful lymph nodes, numbness, and generalized pain. The symptoms involved the central nervous system, the genitourinary system, the gastrointestinal system, the immune system, the musculoskeletal system and the peripheral nervous system. […] The dose of valacyclovir was increased to 2000 mg two times per day orally. […] NTZ was then added at 500 mg two times per day orally.

Experiment [5] has the same test system. Kind of experiment: Case Study 3: late-middle-aged person with Parkinson's disease symptoms and depression, perfusion SPECT. As to conditions: valacyclovir 1000 mg in the morning and 2000 mg at night orally; after three months. From the text:
FIGS. 1A-1B show perfusion SPECT scan from Case Study 3. […] Scale illustrates levels of perfusion with normal perfusion at the central light grey and decreased perfusion illustrated by progressively darker shades of grey.
A late-middle-aged person presented for evaluation of Parkinson's disease and depression. They had been diagnosed with Parkinson's disease by a neurologist based on clinical signs of tremor and bradykinesia. No neuroimaging had been done. […] A single-photon emission computed tomography (SPECT) brain perfusion scan and a dopamine transporter SPECT scan (DaTscan) were ordered. […] The patient was started on antiviral therapy with valacyclovir at 1000 mg two times per day orally. The dose was increased to 1000 mg orally in the morning and 2000 mg orally at night. […] A repeat perfusion SPECT brain scan was performed (FIG. 1B).

The test system of experiment [6] is Epstein-Barr virus and Herpes 1 virus. Description: Case Study 6: person with severe depression, IBS, brain fog, fatigue, headaches, SPECT. As to conditions: valacyclovir 1000 mg two times per day orally; after three months. From the text: Scale illustrates levels of perfusion in a different manner from FIG. 1. The dark grey central portion of the scale illustrates statistically normal perfusion in a given area relative to a normative database. Areas of progressively lighter grey to white illustrate areas which are 2 standard deviation (SD), 3 SD, and 4 SD below the mean of the normative database, respectively.
A person presented with a history of depression since their teen years. They were severely depressed upon presentation (Quick Inventory of Depressive Symptomatology scale 26/27) and spent most of their time in their bedroom in the basement of their parent's house. They had withdrawn from college and had never held a full-time job. Their condition was complicated by irritable bowel syndrome, brain fog, pervasive fatigue, and headaches. […] The patient also underwent a functional brain scan (single photon emission computed tomography—SPECT). […] The patient was started on the antiviral valacyclovir at 1000 mg two times per day orally. […] NTZ was added at a dose of 500 mg two times per day orally. After one month, the dose of NTZ was increased to 1000 mg two times per day orally.

Here are results for three compounds from patent US20240285589A1, “TREATMENT USING AN ANTIVIRAL COMPOUND AND NITAZOXANIDE” (priority 2021, published 2024).

SMILES strings stand for the structures.

For the compound `CC(=O)OCC(CCn1cnc2cnc(N)nc21)COC(C)=O` [famciclovir], the “memory function as reflected by scores on cognitive testing” value in experiment [1] (famciclovir 500 mg then 1000 mg two times per day orally) is on record as “modest improvement”. Also, the daily memory function result in experiment [1] (famciclovir 1000 mg two times per day orally) is “struggled still with daily memory function”. Besides, the “symptoms of severe fatigue” value in experiment [2] (famciclovir titrated from 500 mg to 1000 mg two times per day orally, after three months) is “no improvement”.

For the compound `CC(C)[C@H](N)C(=O)OCC(CO)OCn1cnc2c(=O)nc(N)[nH]c21` (some centres unmarked) [valganciclovir], the “symptoms of severe fatigue” value in experiment [2] (valganciclovir titrated from 450 mg to 900 mg two times per day, after four months) is on record as “without improvement”.

In the case of `CC(C)[C@H](N)C(=O)OCCOCn1cnc2c(=O)[nH]c(N)nc21` [valacyclovir], in experiment [3], the “brain fog, anxiety, bowel movements” value is “still struggled with brain fog, anxiety, and frequent bowel movements”; the fatigue entry was “modest improvement in fatigue”; the “need to nap on a daily basis” value is “no longer needed to nap on a daily basis”. Moreover, in experiment [4] (valacyclovir 1000 mg two times per day orally, over three months), the symptoms result is listed as “minor improvement”. Further, the symptoms entry in experiment [4] (valacyclovir increased to 2000 mg two times per day orally) is “slight additional benefit”. Further, in experiment [5], the depression symptoms result is given as “marked improvement”; the energy and motivation result was “improved energy and motivation”; the tremor and bradykinesia entry was “continued to experience tremor and bradykinesia”. The “symptoms of severe fatigue” value in experiment [2] (valacyclovir 1000 mg bid orally, after four months increased to 2000 mg two times per day) is recorded as “did not improve”. In experiment [6], the clarity of thinking result was “could think more clearly”, the depression result is “somewhat less depressed”, the fatigue result is listed as “somewhat less fatigued” and the improvement in symptoms entry was “roughly 20%”.
